From patent publication US5691373A, “Nonpeptide endothelin antagonists I” (Warner-Lambert Company, priority 1995, dated 1997) come the findings set out here.

Molecules are shown by their SMILES. Read-outs that look alike come from different tables or passages of the source.

The target of one assay is T1, ETA (Oryctolagus cuniculus, UniProt A5A8K3).
T1 sequence (A5A8K3 21-427): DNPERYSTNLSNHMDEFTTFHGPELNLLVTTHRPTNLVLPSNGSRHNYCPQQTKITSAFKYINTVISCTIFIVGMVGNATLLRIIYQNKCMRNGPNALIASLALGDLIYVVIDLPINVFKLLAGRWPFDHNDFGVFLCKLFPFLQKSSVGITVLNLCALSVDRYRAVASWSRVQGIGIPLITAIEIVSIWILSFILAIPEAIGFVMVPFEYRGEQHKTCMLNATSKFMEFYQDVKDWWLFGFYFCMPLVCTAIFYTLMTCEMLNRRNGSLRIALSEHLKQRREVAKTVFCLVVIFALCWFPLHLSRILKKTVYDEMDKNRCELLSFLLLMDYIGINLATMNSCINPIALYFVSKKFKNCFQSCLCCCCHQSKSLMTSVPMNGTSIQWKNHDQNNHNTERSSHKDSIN
The settings on record: for IC50: ERBA-A IC50, [125I]-ET-1, rabbit renal artery vascular smooth muscle cells.

The target in the next assay is T2, ETB (Rattus norvegicus, UniProt P21451).
T2 sequence (P21451 27-442): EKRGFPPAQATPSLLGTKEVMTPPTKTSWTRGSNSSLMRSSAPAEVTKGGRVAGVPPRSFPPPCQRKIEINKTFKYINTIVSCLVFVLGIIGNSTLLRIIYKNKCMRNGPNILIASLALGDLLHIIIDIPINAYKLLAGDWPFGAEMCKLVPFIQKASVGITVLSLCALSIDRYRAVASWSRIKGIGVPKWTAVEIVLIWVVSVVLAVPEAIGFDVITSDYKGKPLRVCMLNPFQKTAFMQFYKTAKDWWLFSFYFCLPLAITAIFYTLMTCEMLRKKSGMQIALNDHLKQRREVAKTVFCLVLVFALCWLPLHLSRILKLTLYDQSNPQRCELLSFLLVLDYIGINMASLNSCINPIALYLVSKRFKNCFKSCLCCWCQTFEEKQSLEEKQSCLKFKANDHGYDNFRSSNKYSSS
Conditions: for inhibition at 10 µM: read-out: ERBA-B % inhibition.

Description for ETA: The cells used were rabbit renal artery vascular smooth muscle cells grown in a 48-well dish (1 cm^2) (confluent cells).
The growth media was Dulbecco's Modified Eagles/Ham's F12 which contained 10% fetal bovine serum and antibiotics (penicillin/streptomycin/fungizone).
Second, remove the assay buffers, place the dish on ice, and add 150 μL of cold assay buffer described above to each well. […] Next, place dish in a 37° C., water bath for about 2 hours and gently agitate the dish every 15 minutes. Discard the radioactive incubation mixture in the sink and wash wells 3 times with 1 mL of cold phosphate buffered saline.

What is called IC50 is the point on the concentration scale where inhibition reaches its midpoint. For `COc1cccc(CC2=C(c3ccc4c(c3)OCO4)C(=O)OC2(O)c2ccc(Cl)cc2)c1` (centres unmarked) [Example 47, 2(5H)-Furanone, 3-(1,3-benzodioxol-5-yl)-5-(4-chlorophenyl)-5-hydroxy-4-[(3-methoxyphenyl)methyl]-], the IC50 on ETA came out at 3.9 µM; on ETB it was 7.8 µM.
On the same counts, the results for `CN(C)c1ccc(CC2=C(c3ccc(Cl)c(Cl)c3)C(=O)OC2(O)c2ccc(Cl)cc2)cc1` (centres unmarked) [Example 119, 5-(4-Chlorophenyl)-3-(3,4-dichlorophenyl)-4-(4-dimethylaminobenzyl)-5-hydroxy-5H-furan-2-one] are 5.8 µM and 4.1 µM.
The matching figures for `COc1ccc(C2(O)OC(=O)C(c3ccc4c(c3)OCO4)=C2Cc2ccc(Br)cc2)cc1` (centres unmarked) [Example 83, 3-Benzo[1,3]dioxol-5-yl-4-(4-bromobenzyl)-5-hydroxy-5-(4-methoxyphenyl)-5H-furan-2-one]: 0.071 µM and 0.5 µM.
As for `COc1ccc(C2=C(Cc3ccc(C(C)C)cc3)C(O)(c3ccc(Cl)cc3)OC2=O)cc1OC` (racemic) [Example 70, 2(5H)-Furanone, 5-(4-chlorophenyl)-3-(3,4-dimethoxyphenyl)-5-hydroxy-4-[[4-(1-methylethyl)phenyl]methyl]-, (±)-], the IC50 at ETA was determined as 9.3 µM; at ETB, 15 µM.
The matching figures for `COc1ccc(C2(O)OC(=O)C(c3ccc4c(c3)OCO4)=C2Cc2ccc(Cl)c(Cl)c2)cc1` (centres unmarked) [Example 78, 3-Benzo[1,3]dioxol-5-yl-4-(3,4-dichlorobenzyl)-5-hydroxy-5-(4-methoxyphenyl)-5H-furan-2-one]: 0.24 µM and 0.89 µM.
On the same counts, the results for `COc1ccc(C2=C(Cc3ccc4c(c3)OCO4)C(O)(c3ccc(Cl)cc3)OC2=O)cc1OC` (racemic) [Example 65, 2(5H)-Furanone, 4-(1,3-benzodioxol-5-ylmethy)-5-(4-chlorophenyl)-3-(3,4-dimethoxyphenyl)-5-hydroxy, (±)-] are 9.3 µM and 6 µM.
As for `O=C1OC(O)(c2ccc(Cl)cc2)C(Cc2ccc3c(c2)OCO3)=C1c1ccc(Cl)c(Cl)c1` (racemic) [Example 69, 2(5H)-Furanone, 4-(1,3-benzodioxol-5-ylmethyl)-5-(4-chlorophenyl)-3-(3,4-dichlorophenyl)-5-hydroxy-, (±)-], the results for the IC50 on ETA and on ETB were 9.1 µM and 8.4 µM, respectively.
The matching figures for `COc1ccc(CC2=C(c3ccc4c(c3)OCO4)C(=O)OC2(O)c2ccc(Cl)cc2)cc1` (centres unmarked) [Example 32, 2(5H)-Furanone, 3-(1,3-benzodioxol-5-yl)-5-(4-chlorophenyl)-5-hydroxy-4-[(4-methoxyphenyl)methyl]-]: 1 µM and 6.3 µM.
One may read the inhibition as the share of the control response that was lost under treatment. On ETA, `O=C1OC(O)(c2ccc(Cl)cc2)C(Cc2cccc3ccccc23)=C1c1ccc2c(c1)OCO2` (racemic) [Example 44, 2(5H)-Furanone) 3-(1,3-benzodioxol-5-yl)-5-(4-chlorophenyl)-5-hydroxy-4-(1-naphthalenylmethyl)-, (±)-] yielded an IC50 of 2.8 µM. The inhibition at 10 µM at ETB worked out at 35%.
For the molecule `CC(C)c1ccc(C2=C(Cc3ccc4c(c3)OCO4)C(O)(c3ccc(Cl)cc3)OC2=O)cc1` (racemic) [Example 42, 2(5H)-Furanone, 4-(1,3-benzodioxol-5-ylmethyl)-5-(4-chlorophenyl)-5-hydroxy-3-[4-(1-methylethyl)phenyl]-, (±)-], the figures for the inhibition at 10 µM at ETA (read-out: ERBA-A % inhibition) and on ETB were 36% and 54%, respectively.
Regarding `CC(C)c1ccc(C2=C(Cc3cccc4ccccc34)C(O)(c3ccc(Cl)cc3)OC2=O)cc1` (racemic) [Example 40, 2(5H)-Furanone, 5-(4-chlorophenyl)-5-hydroxy-3-[4-(1-methylethyl)phenyl]-4-(1-naphthalenylmethyl)-, (±)-], on ETB, the inhibition at 10 µM stood at 22%.
With `O=C1OC(O)(c2ccc(Cl)cc2)C(Cc2ccccc2)=C1c1ccc(Cl)c(Cl)c1` (racemic) [Example 61, 2(5H)-Furanone, 5-(4-chlorophenyl)-3-(3,4-dichlorophenyl)-5-hydroxy-4-(phenylmethyl)-, (±)-], the IC50 at ETA and against ETB was 11 µM in each case.
Turning to `COc1ccc(C2=C(Cc3ccc(Cl)c(Cl)c3)C(O)(c3ccc(Cl)cc3)OC2=O)cc1OC` (racemic) [Example 73, 2(5H)-Furanone, 5-(4-chlorophenyl)-4-[(3,4-dichlorophenyl)methyl]-3-(3,4-dimethoxyphenyl)-5-hydroxy-, (±)-], the IC50 against ETA came to 21 µM; on ETB, 13 µM.
The matching figures for `O=C1OC(O)(c2ccc(Cl)cc2)C(Cc2ccccc2)=C1c1ccc2c(c1)OCCO2` (centres unmarked) [Example 30, 2(5H)-Furanone, 5-(4-chlorophenyl)-3-(2,3-dihydro-1,4-benzodioxin-6-yl)-5-hydroxy-4-(phenylmethyl)-]: 7.9 µM and 13 µM.
On the same counts, the results for `C=CCOc1cc(OC)ccc1C1(O)OC(=O)C(c2ccc3c(c2)OCO3)=C1Cc1ccccc1` (centres unmarked) [Example 329, 3-Benzo[1,3]dioxol-5-yl-5-hydroxy-5-(2-allyloxy-4-methoxy-phenyl)-4-benzyl-5H-furan-2one] are 0.11 µM and 0.11 µM.
Consider `O=C1OC(O)(c2ccccc2)C(Cc2cccs2)=C1c1ccc2c(c1)OCO2` (centres unmarked) [Example 25, 2(5H)-Furanone, 3-(1,3-benzodioxol-5-yl)-5-hydroxy-5-phenyl-4-(2-thienylmethyl)-], for which the IC50 was 1.7 µM on ETA and 15.6 µM against ETB.
In the case of `Cc1ccccc1C1(O)OC(=O)C(c2ccc3c(c2)OCO3)=C1Cc1ccccc1` (centres unmarked) [Example 216, 3-Benzo[1,3]dioxol-5-yl-4-benzyl-5-hydroxy-5-o-tolyl-5H-furan-2-one], the IC50 on ETA is 0.29 µM; at ETB it was 8 µM.
Take `CC(C)c1ccc(CC2=C(c3ccc4c(c3)OCO4)C(=O)OC2(O)c2ccc(Cl)cc2)cc1` (racemic) [Example 45, 2(5H)-Furanone, 3-(1,3-benzodioxol-5-yl)-5-(4-chlorophenyl)-5-hydroxy-4-[[4-(1-methylethyl)phenyl]methyl]-, (35)-]: the IC50 at ETA turned out to be 1.5 µM; at ETB it was 9.1 µM.
On to `O=C1OC(O)(c2ccc(Cl)cc2)C(Cc2ccc(Cl)cc2)=C1c1ccc2c(c1)OCO2` (centres unmarked) [Example 31, 2(5H)-Furanone, 3-(1,3-benzodioxol-5-yl)-5-(4-chlorophenyl)-4-[(4-chlorophenyl)methyl]-5-hydroxy-], for which the IC50 is 9.9 µM on ETA and 9.1 µM at ETB.
Regarding `COc1ccc(C2=C(Cc3ccc(N(C)C)cc3)C(O)(c3ccc(Cl)cc3)OC2=O)cc1OC` (racemic) [Example 71, 2(5H)-Furanone, 5-(4-Chlorophenyl)-3-(3,4-dimethoxyphenyl)-4-[[4-(dimethylamino)phenyl]methyl]-5-hydroxy-, (±)-], the IC50 at ETB worked out at 4.2 µM.
In the case of `COc1ccc(C2=C(Cc3ccccc3)C(O)(c3ccc(Cl)cc3)OC2=O)cc1OC` (racemic) [Example 67, 2(5H)-Furanone, 5-(4-chlorophenyl)-3-(3,4-dimethoxyphenyl)-5-hydroxy-4-(phenylmethyl)-, (±)-], the IC50 against ETA turned out to be 7.1 µM; against ETB, 6.3 µM.
Take `O=C1OC(O)(c2ccc(Cl)cc2)C(Cc2cccs2)=C1c1ccc2c(c1)OCO2` (centres unmarked) [Example 35, 2(5H)-Furanone, 3-(1,3-benzodioxol-5-yl)-5-(4-chlorophenyl)-5-hydroxy-4-(2-thienylmethyl)-]: the results for the IC50 against ETA and on ETB were 1.1 µM and 3.3 µM, respectively.
As for `CCCOc1cccc(CC2=C(c3cccc(OC)c3)C(=O)OC2(O)c2ccc(OC)cc2)c1` (centres unmarked) [Example 154, 5-Hydroxy-5-(4-methoxyphenyl)-3-(3-methoxyphenyl)-4-(3-propoxybenzyl)-5H-fu ran-2-one], the results for the IC50 against ETA and at ETB were 0.1 µM and 2.1 µM, respectively.
Turning to `O=C1OC(O)(c2ccc(Cl)cc2)C(Cc2ccccc2)=C1c1ccc2c(c1)OCO2` (centres unmarked) [Example 39, 2(5H)-Furanone, 3-(1,3-benzodioxol-5-yl)-5-(4-chlorophenyl)-5-hydroxy-4-(phenylmehyl)-], the IC50 against ETB was found to be 4.2 µM.
Same read-out and setting: then `CN(C)c1ccc(C2=C(Cc3ccc4c(c3)OCO4)C(O)(c3ccc(Cl)cc3)OC2=O)cc1` (racemic) [Example 54, 2(5H)-Furanone, 4-(1,3-benzodioxol-5-ylmethyl)-5-(4-chlorophenyl)-3-[4-(dimethylamino)phenyl]-5-hydroxy-, (±)-], with 18 µM.
As for `COc1ccc(C2(O)OC(=O)C(c3ccc4c(c3)OCO4)=C2Cc2ccc(Cl)cc2)cc1` (centres unmarked) [Example 81, 3-Benzo[1,3]dioxol-5-yl-4-(4-chlorobenzyl)-5-hydroxy-5-(4-methoxophenyl)-5H -furan-2-one], the IC50 on ETB (read-out: ERBA-B IC50, [125I]-ET-1, rat cerebellar membranes) came to 0.72 µM.
